Measured values reported in patent US20240285571A1, “METHODS OF TREATING BONE INFECTIONS” (MICROBION CORPORATION, priority 2020, published 2024).

Tests used:
[1] = system: vancomycin-intermediate Staphylococcus aureus; experiment: Broth microdilution MIC (Example 6); format: cell-based
Method: (§1) Test Compounds: The test agents BisEDT (MB-1-B3; Lot No. ED268-1-11-01), MB-2B, and MB-6 were stored at room temperature, in the dark, until assayed. The solvent and diluent for the test agents was DMSO (Sigma; St. Louis, MO; Lot No. SHBB9319V) and the prepared stock concentration was 6,464 μg/mL (101× the final test concentration).
(§2) Test compounds were evaluated at a concentration range of 0.06-64 μg/mL. For Gram-negative test isolates, amikacin and ceftazidime (alone and with clavulanate at a fixed concentration of 4 μg/mL) were evaluated over a concentration range of 0.06-64 μg/mL; meropenem and levofloxacin were evaluated over a concentration range of 0.008-8 μg/mL. For the testing of S. aureus, clindamycin, daptomycin, levofloxacin and vancomycin were evaluated at a concentration range of 0.008-8 μg/mL; linezolid was tested from 0.03-32 μg/mL.
(§3) Media: Cation-adjusted Mueller Hinton broth (CAMHB; BD; Lot No. 8190586) was used as the medium for testing (2, 3). For testing daptomycin, calcium was supplemented with […] Ca^2+, resulting in a final concentration of […] Ca^2+ (2, 3).
(§4) MIC Assay Procedure: MIC values were determined using a broth microdilution procedure described by CLSI (2, 3). Automated liquid handlers (Multidrop 384, Labsystems, Helsinki, Finland; Biomek 2000 and Biomek F X, Beckman Coulter, Fullerton CA) were used to conduct serial dilutions and liquid transfers.
(§5) To prepare the drug mother plates, which would provide the serial drug dilutions for the replicate daughter plates, the wells of columns 2 through 12 of standard 96-well microdilution plates (Costar 3795) were filled with 150 μl of the appropriate diluent for each row of drug. The test articles and comparator compounds (300 μl at 101× the highest concentration to be tested) were dispensed into the appropriate wells in column 1. The Biomek 2000 was then used to make 2-fold serial dilutions in the mother plates from column 1 through column 11. The wells of column 12 contained no drug and served as the organism growth control wells for the assay.
(§6) The daughter plates were loaded with 190 μL per well of RPMI using the Multidrop 384. The test panels were prepared on the Biomek FX instrument which transferred 2 μL of drug solution from each well of a mother plate to the corresponding well of each daughter plate in a single step.
(§7) A standardized inoculum of each test organism was prepared per CLSI methods to equal a 0.5 McFarland standard, followed by a dilution of 1:20. The plates were then inoculated with 10 μL of the diluted inoculum using the Biomek 2000 from low to high drug concentration resulting in a final concentration of approximately 5×10^5 CFU/mL.
(§8) Plates were stacked 3-4 high, covered with a lid on the top plate, placed into plastic bags, and incubated at 35° C. for 16 to 20 hr (vancomycin was read for S. aureus after 24 hr incubation time). The MIC was recorded as the lowest concentration of drug that inhibited visible growth of the organism.

[2] = system: relevant ATCC QC organisms; conditions: S. aureus ATCC 29213; CLSI established QC range; cited from earlier work
[3] = system: non-speciated Corynebacterium; experiment: MIC of baseline clinical isolates (Example 8); format: cell-based; conditions: Corynebacterium non-speciated baseline isolates (N′ = 2), central laboratory, mITT
Method: (§9) Microbiology was assessed on Day 1 and at the time of any subsequent surgical procedure at the index site. Samples were collected from the infected bone site or involved tissue adjacent to any implant(s), swabs of the deep infection site, and the superficial tissue/wound closure/sinus tract site. Isolation and identification of aerobic and anerobic bacteria was conducted at a central microbiology laboratory (IHMA, Schaumburg, IL) and susceptibility of the isolates to MBN-101 (BisEDT) and comparator agents was performed per Clinical and Laboratory Standards Institute (CLSI). Parallel sets of samples were analyzed by the local clinical site laboratory to guide patient antibiotic treatment.

[4] = system: Corynebacterium jeikeium; experiment: MIC of baseline clinical isolates (Example 8); format: cell-based; conditions: Corynebacterium jeikeium baseline isolates (N′ = 2), central laboratory, mITT
Method: as §9

[5] = system: Corynebacterium amycolatum; experiment: MIC of baseline clinical isolates (Example 8); format: cell-based; conditions: Corynebacterium amycolatum baseline isolates (N′ = 1), central laboratory, mITT
Method: as §9

[6] = system: Streptococcus oralis; experiment: MIC of baseline clinical isolates (Example 8); format: cell-based; conditions: Streptococcus oralis baseline isolates (N′ = 1), central laboratory, mITT
Method: as §9

[7] = system: Corynebacterium resistens; experiment: MIC of baseline clinical isolates (Example 8); format: cell-based; conditions: Corynebacterium resistens baseline isolates (N′ = 1), central laboratory, mITT
Method: as §9

[8] = system: Dermabacter hominis; experiment: MIC of baseline clinical isolates (Example 8); format: cell-based; conditions: Dermabacter hominis baseline isolates (N′ = 1), central laboratory, mITT
Method: as §9

[9] = system: relevant ATCC QC organisms; experiment: Broth microdilution MIC, QC (Example 6); format: cell-based; conditions: S. aureus ATCC 29213
Method: as §1, §2
Organisms: The test organisms as shown in Tables 11-15 consisted of clinical isolates from the Micromyx (MMX) repository and reference strains from the American Type Culture Collection (ATCC; Manassas, VA), National Collection of Type Cultures (NCTC; Public Health England, Salisbury, UK), the Network on Antimicrobial Resistance in Staphylococcus aureus (NARSA; BEI Resources, Manassas, VA), and the Centers for Disease Control and Prevention (CDC; Atlanta, GA). The test organisms were maintained frozen at −80° C. Prior to testing, the isolates were cultured on Tryptic Soy Agar with 5% sheep blood (BAP; Becton Dickson [BD]/BBL; Sparks, MD; Lot Nos. 9080650 and 9108563) at 35° C. Relevant ATCC quality control (QC) organisms (Table 16) were included during testing in accordance with CLSI guidelines (3). Further details on the genetic characterization of the isolates where available can be found in Table 17.
as §3, §4, §5, §6, §7, §8

[10] = system: S. aureus (MRSA, MSSA); experiment: MIC of baseline clinical isolates (Example 8); format: cell-based; conditions: Staphylococcus aureus, MRSA baseline isolates (N′ = 4), central laboratory, mITT
Method: (§10) Microbiology was assessed on Day 1 and at the time of any subsequent surgical procedure at the index site. Samples were collected from the infected bone site or involved tissue adjacent to any implant(s), swabs of the deep infection site, and the superficial tissue/wound closure/sinus tract site. […] Parallel sets of samples were analyzed by the local clinical site laboratory to guide patient antibiotic treatment.

[11] = system: Staphylococcus hominis; experiment: MIC of baseline clinical isolates (Example 8); format: cell-based; conditions: Staphylococcus hominis baseline isolates (N′ = 1), central laboratory, mITT
Method: as §10

[12] = system: Staphylococcus pasteuri; experiment: MIC of baseline clinical isolates (Example 8); format: cell-based; conditions: Staphylococcus pasteuri baseline isolates (N′ = 1), central laboratory, mITT
Method: as §10

[13] = system: Staphylococcus lugdunensis; experiment: MIC of baseline clinical isolates (Example 8); format: cell-based; conditions: Staphylococcus lugdunensis baseline isolates (N′ = 3), central laboratory, mITT
Method: as §10

[14] = system: S. epidermidis; experiment: MIC of baseline clinical isolates (Example 8); format: cell-based; conditions: Staphylococcus epidermidis baseline isolates (N′ = 5), central laboratory, mITT
Method: as §10

[15] = system: Staphylococcus arlettae; experiment: MIC of baseline clinical isolates (Example 8); format: cell-based; conditions: Staphylococcus arlettae baseline isolates (N′ = 1), central laboratory, mITT
Method: as §10

[16] = system: Staphylococcus haemolyticus; experiment: MIC of baseline clinical isolates (Example 8); format: cell-based; conditions: Staphylococcus haemolyticus baseline isolates (N′ = 1), central laboratory, mITT
Method: as §10

## CC(=O)NC[C@H]1CN(c2ccc(N3CCOCC3)c(F)c2)C(=O)O1 [LZD]
[1]; S. aureus isolate NRS 1 (hVISA)
  MIC: 1 mg/L
[1]; S. aureus isolate NRS 2
  MIC: 4 mg/L
[1]; S. aureus isolate NRS 3
  MIC: 1 mg/L
[1]; S. aureus isolate NRS 4
  MIC: 1 mg/L
[1]; S. aureus isolate NRS 13
  MIC: 2 mg/L
[1]; S. aureus isolate NRS 18
  MIC: 1 mg/L
[1]; S. aureus isolate NRS 22
  MIC: 1 mg/L
[1]; S. aureus isolate NRS 24 (hVISA)
  MIC: 2 mg/L
[1]; S. aureus isolate NRS 27
  MIC: 2 mg/L
[2]
  MIC QC range (in parentheses): (1-4) μg/mL
[3]
  Mean MIC: 0.18 mg/L
  n (% resistant): 0 (0.0) n (%)
[4]
  Mean MIC: 0.38 mg/L
  n (% resistant): 0 (0.0) n (%)
[5]
  Mean MIC: 0.12 mg/L
  n (% resistant): 0 (0.0) n (%)
[6]
  Mean MIC: 1.00 mg/L
  n (% resistant): 0 (0.0) n (%)
[7]
  Mean MIC: 0.25 mg/L
  n (% resistant): 0 (0.0) n (%)
[8]
  Mean MIC: 0.50 mg/L
  n (% resistant): 0 (0.0) n (%)
[9]
  MIC: 4 mg/L
[10]
  Mean MIC: 1.25 mg/L
  n (% resistant): 0 (0.0) n (%)
[11]
  Mean MIC: 0.50 mg/L
  n (% resistant): 0 (0.0) n (%)
[12]
  Mean MIC: 1.00 mg/L
  n (% resistant): 0 (0.0) n (%)
[13]
  Mean MIC: 0.83 mg/L
  n (% resistant): 0 (0.0) n (%)
[14]
  Mean MIC: 0.80 mg/L
  n (% resistant): 0 (0.0) n (%)
[15]
  Mean MIC: 2.00 mg/L
  n (% resistant): 0 (0.0) n (%)
[16]
  Mean MIC: 1.00 mg/L
  n (% resistant): 0 (0.0) n (%)
